“And” between values parts separate entries of the source, which are not always exact repeats. Equal values may be shown once. Read-outs that look alike come from different tables or passages of the source.
Tests used:
[1] = system: NF54^G358S-1 parasites; assay: P. falciparum proliferation assay (72 h, flow cytometry, SYBR Green I/MitoTracker); assay type: cell-based, Plasmodium falciparum; details: for FC (IC50) / FC (IC90): NF54G358S-1 compared to NF54WT
Procedure: (§1) For the NF54-based lines and Dd2-B2-PfATP4^G358S and its parent, assays were initiated with cultures containing predominantly ring-stage parasites with a parasitaemia of 0.3% and a haematocrit of 1%. All assays using NF54 were performed in culture media containing 10% O + human serum. The duration of the assays was 72 h and the concentration of DMSO was <0.5% (v/v). Serial dilutions of the test compounds were performed using a Tecan D300e digital dispenser, with parasite cultures added manually. Parasite survival was assessed by flow cytometry on an Intellicyt iQue3 (Essen Bioscience), with 1× SYBR Green I (Invitrogen) and 200 nM MitoTracker Deep Red FM (Invitrogen) used to stain the nucleus and the mitochondria in live parasites, respectively. The gating strategy used to quantify parasite survival, performed using FlowJo version 10 (FlowJo LLC.), is illustrated in Supplementary Fig. 9. IC50 and IC90 values were calculated by linear interpolation of the dose-response data.

[2] = system: NF54^CTL parasites; assay: as above; assay type: cell-based, Plasmodium falciparum; details: for FC (IC50) / FC (IC90): NF54CTL compared to NF54WT
Procedure: as §1

[3] = target: T1, PfATP4^WT (membranes from Dd2-Polδ parasites) (Plasmodium falciparum, UniProt A0A143ZZK9); assay: Membrane ATPase assay, ATP4-associated (Na+-dependent) ATPase activity; assay type: biochemical; details: for PfATP4-associated ATPase activity (% of control): Dd2-Polδ
T1 sequence (A0A143ZZK9 1-1264): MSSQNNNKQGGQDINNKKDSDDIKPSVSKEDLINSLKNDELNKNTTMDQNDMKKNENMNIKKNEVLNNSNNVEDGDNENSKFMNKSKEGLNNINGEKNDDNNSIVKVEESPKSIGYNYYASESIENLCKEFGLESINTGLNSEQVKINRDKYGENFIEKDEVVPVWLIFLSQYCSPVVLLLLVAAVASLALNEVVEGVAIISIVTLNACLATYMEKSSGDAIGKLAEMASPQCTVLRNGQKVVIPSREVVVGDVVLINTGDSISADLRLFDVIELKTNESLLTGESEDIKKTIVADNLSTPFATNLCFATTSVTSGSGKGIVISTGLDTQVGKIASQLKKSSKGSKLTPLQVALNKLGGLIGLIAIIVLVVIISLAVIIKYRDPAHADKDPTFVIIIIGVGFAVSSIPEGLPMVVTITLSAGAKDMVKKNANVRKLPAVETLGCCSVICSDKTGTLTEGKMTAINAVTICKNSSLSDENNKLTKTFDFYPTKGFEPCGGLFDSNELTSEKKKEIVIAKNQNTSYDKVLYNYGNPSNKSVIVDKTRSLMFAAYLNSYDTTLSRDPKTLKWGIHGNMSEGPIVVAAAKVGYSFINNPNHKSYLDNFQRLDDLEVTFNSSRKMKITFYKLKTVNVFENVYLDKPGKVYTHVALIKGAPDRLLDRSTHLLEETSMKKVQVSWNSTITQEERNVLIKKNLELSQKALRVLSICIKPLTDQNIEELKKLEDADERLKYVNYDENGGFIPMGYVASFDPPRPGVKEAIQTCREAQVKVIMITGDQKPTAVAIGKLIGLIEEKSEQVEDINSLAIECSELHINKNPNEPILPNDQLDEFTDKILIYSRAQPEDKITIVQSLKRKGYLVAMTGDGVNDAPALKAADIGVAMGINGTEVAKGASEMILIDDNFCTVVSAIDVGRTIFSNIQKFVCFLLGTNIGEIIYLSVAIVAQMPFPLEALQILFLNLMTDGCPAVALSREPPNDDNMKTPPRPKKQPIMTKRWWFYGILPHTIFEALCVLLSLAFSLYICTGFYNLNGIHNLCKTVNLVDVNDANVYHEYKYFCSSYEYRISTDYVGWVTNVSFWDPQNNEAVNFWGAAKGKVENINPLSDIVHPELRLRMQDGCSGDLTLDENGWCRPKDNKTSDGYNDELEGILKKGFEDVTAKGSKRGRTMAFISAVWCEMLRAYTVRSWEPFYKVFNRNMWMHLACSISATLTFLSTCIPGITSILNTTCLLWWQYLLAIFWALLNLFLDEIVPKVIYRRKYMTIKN
Procedure: Membranes from isolated P. falciparum or extracellular T. gondii parasites were prepared by lysing parasites in ice-cold deionized water containing a 1:500 dilution of Protease Inhibitor Cocktail Set III (Merck Millipore), then washing the membrane preparation three times in ice-cold deionized water (with protease inhibitors present for the first two washes)[15]. Protein concentrations in the membrane preparations were measured using a Bradford assay. The PiColorLock Gold Phosphate Detection System (Innova Biosciences) was used to measure the production of Pi from hydrolysis of ATP[15]. Membrane preparations were diluted in either a high Na^+ solution (yielding final conditions in the reactions of 150 mM NaCl, 20 mM KCl, 2 mM MgCl2, 50 mM Tris, pH 7.2) or a Na^+-free solution (yielding final conditions of 150 mM choline chloride, 20 mM KCl, 2 mM MgCl2, 50 mM Tris, pH 7.2) to achieve a total protein concentration of 50 μg/mL. […] The reactions were performed at 37 °C, and were initiated by the addition of 1 mM ATP (Na2ATP۰3H2O; MP Biomedicals) and terminated 10 min later by adding 100 μL of reaction mixture (in duplicate) to 25 μL “Gold mix” in a 96-well plate. “Stabiliser” was added 3 min later, and the plates incubated at room temperature in the dark for 60 min before measuring absorbance at 635 nm. Background values (averaged from wells containing all components, but to which ATP was not added until after the membrane was exposed to Gold mix) were subtracted from the data. For each treatment, the ATPase activity associated with the (Na^+-dependent) PfATP4 and TgATP4 proteins was calculated by subtracting data obtained in the low Na^+ condition (containing only the 2 mM Na^+ introduced on addition of 1 mM Na2ATP) from that obtained in the high Na^+ condition.

[4] = NF54G358S-1 parasites, individual experiments, read-out: IC90 values
[5] = Plasmodium falciparum, NF54, NF54G358S-1 parasites, individual experiments, read-out: IC90 values
[6] = Plasmodium falciparum, NF54, NF54G358S-1 parasites, mean of the experiments, read-out: IC90 values, MEAN
[7] = NF54CTL parasites, individual experiments, read-out: IC90 values
[8] = Plasmodium falciparum, NF54, NF54CTL parasites, mean of the experiments, read-out: IC90 values, MEAN

N#Cc1cc(NC(=O)[C@H]2c3ccccc3C(=O)N(CC(F)(F)F)[C@@H]2c2cccnc2)ccc1F [(+)-SJ733]
IC50 ([1]; NF54G358S-1, single experiments, source data of Fig. 2 (nM in Supplementary Table 5), read-out: IC50 values): 12600 nM and 15300 nM and 15000 nM
FC (IC50) [1]: 148.8 fold
FC (IC90) [1]: 155.4 fold
IC90 [1, 4]: 25.9 µM and 24.2 µM and 24.3 µM
IC50 ([1]; Plasmodium falciparum, NF54, NF54G358S-1, 10% human serum, read-out: IC50 ± SEM): 14000 ± 683 nM
IC90 ([1]; Plasmodium falciparum, NF54, NF54G358S-1, 10% human serum, read-out: IC90 ± SEM): 25.4 ± 0.727 µM
IC50 ([1]; Plasmodium falciparum, NF54, NF54G358S-1, MEAN, source data of Fig. 2, read-out: IC50 values, MEAN): 14000 nM
IC50 ([1]; Plasmodium falciparum, NF54, NF54G358S-1, single experiments, source data of Fig. 2 (nM in Supplementary Table 5), read-out: IC50 values): 13000 nM
IC90 [1, 5]: 27.2 µM
IC90 [1, 6]: 25.4 µM
FC (IC50) [2]: 0.9 fold
FC (IC90) [2]: 0.9 fold
IC90 [2, 7]: 0.13 µM and 0.155 µM and 0.157 µM
IC50 ([2]; NF54CTL, single experiments, source data of Fig. 2 (nM in Supplementary Table 5), read-out: IC50 values): 85.7 nM and 81.4 nM and 82.7 nM
IC90 [2, 8]: 0.15 µM
IC50 ([2]; Plasmodium falciparum, NF54, NF54CTL, MEAN, source data of Fig. 2, read-out: IC50 values, MEAN): 84.8 nM
IC50 ([2]; Plasmodium falciparum, NF54, NF54CTL, single experiments, source data of Fig. 2 (nM in Supplementary Table 5), read-out: IC50 values): 89.3 nM
IC50 for inhibition of ATP4-associated ATPase activity, MEAN ([3]; Dd2-Polδ membranes, MEAN, source data of Table 1 (nM there)): 5.23
IC50 for ATP4-associated ATPase activity ([3]; membranes from Dd2-Polδ, mean ± SEM): 5.2 ± 2.3 (3) nM

N#Cc1cc(NC(=O)[C@H]2c3ccccc3C(=O)N(CC(F)(F)F)[C@@H]2c2cccnc2)ccc1F [(+)SJ733]
PfATP4-associated ATPase activity (% of control) ([3]; [(+)SJ733] 0.122 nM, MEAN): 74.2 % of control
PfATP4-associated ATPase activity (% of control) ([3]; [(+)SJ733] 0.122 nM, single experiments, 0.000122 µM): 57.4 % of control and 86.4 % of control and 78.7 % of control
PfATP4-associated ATPase activity (% of control) ([3]; [(+)SJ733] 0.244 nM, MEAN): 71.3 % of control
PfATP4-associated ATPase activity (% of control) ([3]; [(+)SJ733] 0.244 nM, single experiments, 0.000244 µM): 51.9 % of control and 74.9 % of control and 87.1 % of control
PfATP4-associated ATPase activity (% of control) ([3]; [(+)SJ733] 0.5 nM, MEAN): 85.1 % of control
PfATP4-associated ATPase activity (% of control) ([3]; [(+)SJ733] 1.0 nM, MEAN): 59.1 % of control
PfATP4-associated ATPase activity (% of control) ([3]; [(+)SJ733] 2.0 nM, MEAN): 64.2 % of control
PfATP4-associated ATPase activity (% of control) ([3]; [(+)SJ733] 3.9 nM, MEAN): 46.7 % of control
PfATP4-associated ATPase activity (% of control) ([3]; [(+)SJ733] 7.8 nM, MEAN): 32.8 % of control
PfATP4-associated ATPase activity (% of control) ([3]; [(+)SJ733] 15.6 nM, MEAN): 21.9 % of control
PfATP4-associated ATPase activity (% of control) ([3]; [(+)SJ733] 31.3 nM, MEAN): 30.9 % of control
PfATP4-associated ATPase activity (% of control) ([3]; [(+)SJ733] 62.5 nM, MEAN): 7.7 % of control
PfATP4-associated ATPase activity (% of control) ([3]; [(+)SJ733] 250 nM, MEAN): 11.2 % of control
PfATP4-associated ATPase activity (% of control) ([3]; [(+)SJ733] 500 nM, MEAN): -2.6 % of control
PfATP4-associated ATPase activity (% of control) ([3]; [(+)SJ733] 1000 nM, MEAN): -8.2 % of control
PfATP4-associated ATPase activity (% of control) ([3]; [(+)SJ733] 2000 nM, MEAN): 7.9 % of control
PfATP4-associated ATPase activity (% of control) ([3]; [(+)SJ733] 4000 nM, MEAN): -17.1 % of control
PfATP4-associated ATPase activity (% of control) ([3]; [(+)SJ733] 8000 nM, MEAN): -14.6 % of control

C[C@H]1[C@@H](O)O[C@@H]2O[C@@]3(C)CC[C@H]4[C@H](C)CC[C@@H]1[C@@]24OO3 [Dihydroartemisinin]
FC (IC50) [1]: 1.1 fold
FC (IC90) [1]: 1.1 fold
IC90 [1, 4]: 0.00278 µM and 0.00234 µM and 0.00264 µM
IC90 [1, 5]: 0.00268 µM
IC90 [1, 6]: 0.0026 µM
IC50 ([1]; Plasmodium falciparum, NF54, read-out: Dihydroartemisinin IC50 values, NF54G358S-1, MEAN): 0.9 nM
IC50 ([1]; read-out: Dihydroartemisinin IC50 values, NF54G358S-1, single experiments): 0.76 nM and 0.77 nM
FC (IC50) [2]: 1.1 fold
FC (IC90) [2]: 1.2 fold
IC90 [2, 7]: 0.003 µM and 0.00245 µM and 0.00256 µM
IC90 ([2]; Plasmodium falciparum, NF54, NF54CTL parasites, individual experiments, read-out: IC90 values): 0.00288 µM
IC90 [2, 8]: 0.0027 µM
IC50 ([2]; Plasmodium falciparum, NF54, NF54CTL, 10% human serum, read-out: IC50 ± SEM): 0.9 ± 0.1 nM
IC50 ([2]; Plasmodium falciparum, NF54, read-out: Dihydroartemisinin IC50 values, NF54CTL, MEAN): 0.89 nM
IC50 ([2]; read-out: Dihydroartemisinin IC50 values, NF54CTL, single experiments): 0.98 nM and 0.8 nM and 0.7 nM
